Where two headings read alike, the source gives them in different places.
What was measured:
Assay type in all cases: biochemical
PDK-1 = biological target: T1, PDK-1 (Homo sapiens, UniProt O15530); assay: PDK-1 kinase inhibition ELISA assay (phosphorylation of His6-tagged SGK1 S422D by PDK-1)
T1 sequence (O15530 1-556): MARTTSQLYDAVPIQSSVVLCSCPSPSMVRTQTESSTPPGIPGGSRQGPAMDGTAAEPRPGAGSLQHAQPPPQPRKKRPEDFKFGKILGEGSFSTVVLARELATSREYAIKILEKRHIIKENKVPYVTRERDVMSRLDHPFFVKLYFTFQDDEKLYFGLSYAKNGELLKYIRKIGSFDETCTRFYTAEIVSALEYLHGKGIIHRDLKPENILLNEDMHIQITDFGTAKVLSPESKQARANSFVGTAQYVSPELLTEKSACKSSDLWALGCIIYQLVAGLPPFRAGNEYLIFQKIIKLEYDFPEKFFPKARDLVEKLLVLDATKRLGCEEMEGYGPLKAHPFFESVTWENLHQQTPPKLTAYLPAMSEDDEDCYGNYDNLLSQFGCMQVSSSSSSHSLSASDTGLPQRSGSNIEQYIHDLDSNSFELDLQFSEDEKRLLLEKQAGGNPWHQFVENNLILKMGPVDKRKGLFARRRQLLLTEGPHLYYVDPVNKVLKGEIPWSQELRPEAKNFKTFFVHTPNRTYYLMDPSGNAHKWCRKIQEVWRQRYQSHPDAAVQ

Akt1 = Akt1 (Homo sapiens, UniProt P31749); assay: Akt1 kinase inhibition, Z'-LYTE FRET assay; settings: 100 μM ATP
Source text: The ability of illustrative Benzo[c][2,7]naphthyridine Derivatives to inhibit PKA, Akt1, S6K in vitro can be determined using a Fluorescence Resonance Energy Transfer (FRET) assay, such as a Z′-LYTE™ Kinase Assay Platform, commercially available from Invitrogen (c.f. Rodems et al., ASSAY Drug Devel. Technol. 1:9-19 (2002) and Zhang et al., J. Biomol. Screen. 4:67-73 (1999)). Z′-Lyte™ assay is an in vitro FRET-based assay that utilizes differential sensitivity of phosphorylated and non-phosphorylated peptides to proteolytic cleavage. The peptide substrate (also available from Invitrogen for each of PKA, Akt1 and S6K) is labeled with two different fluorophores, a fluorescence donor at one end of the peptide and a fluorescence acceptor at the other end of the peptide. In the primary kinase reaction, the kinase phosphorylates the peptide substrate in the presence of ATP. In the secondary reaction, a site-specific protease recognizes and cleaves non-phosphorylated peptides, but not phosphorylated peptides. Cleavage disrupts FRET between the donor and acceptor fluorophores on the peptide, whereas uncleaved phosphorylated peptides maintain FRET. Based on a formula that uses the ratio of donor emission (at 460 nm) to acceptor emission (at […]) after excitation of the donor fluorophore at 400 nm, the extent of phosphorylation of the peptide substrates is calculated. IC50 values of illustrative Benzo[c][2,7]naphthyridine Derivatives, shown in Table 12, are calculated using LSW Data Analysis package add-in for Excel (Microsoft).

PKA = PKA (Homo sapiens, UniProt P17612); assay: PKA kinase inhibition, Z'-LYTE FRET assay; settings: 20 μM ATP
[1] = PDK-1 ELISA, Table 11, read-out: Average IC50

Sequence of Akt1 (P31749 whole entry, species assumed): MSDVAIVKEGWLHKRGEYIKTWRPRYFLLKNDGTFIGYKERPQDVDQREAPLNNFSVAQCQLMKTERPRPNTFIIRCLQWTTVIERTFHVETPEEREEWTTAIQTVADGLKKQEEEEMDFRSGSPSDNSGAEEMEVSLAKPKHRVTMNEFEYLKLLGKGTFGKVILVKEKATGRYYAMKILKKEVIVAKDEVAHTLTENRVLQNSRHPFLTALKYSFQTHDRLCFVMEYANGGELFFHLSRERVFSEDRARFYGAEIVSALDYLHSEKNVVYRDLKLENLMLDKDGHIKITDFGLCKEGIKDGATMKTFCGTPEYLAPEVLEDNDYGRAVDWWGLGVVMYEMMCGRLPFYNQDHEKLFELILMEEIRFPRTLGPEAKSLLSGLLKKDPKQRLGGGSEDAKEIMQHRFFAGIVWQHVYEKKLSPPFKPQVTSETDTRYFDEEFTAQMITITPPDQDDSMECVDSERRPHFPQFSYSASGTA

SMILES | IC50 (PDK-1; [1]) [nM] | IC50 (Akt1) [nM] | IC50 (PKA) [nM] | IC50 (PDK-1) [nM]
CN(C)CC#Cc1ccc2c(c1)ncc1c(N)nc(-n3ccnc3)cc12 [Ia-36, 8-[3-(Dimethylamino)prop-1-yn-1-yl]-2-(1H-imidazol-1-yl)benzo[c]-2,7-naphthyridin-4-amine] | 531 | 2000 |  | 
COc1cc2c(cc1OCCCN1CCCC1)ncc1c(N)nc(-c3cccnc3C)cc12 [Ia-9, 9-Methoxy-2-(2-methylpyridin-3-yl)-8-(3-pyrrolidin-1-ylpropoxy)benzo[c]-2,7-naphthyridin-4-amine] | 2120 | 4000 | > 10000 | 
CCN1CCN(CC/C=C/c2ccc3c(c2)ncc2c(N)nc(-n4ccnc4)cc23)CC1 [Ia-25, 8-[(1E)-4-(4-ethylpiperazin-1-yl)but-1-en-1-yl]-2-(1H-imidazol-1-yl)benzo[c]-2,7-naphthyridin-4-amine] | 116 | 230 | 1250 | 
COc1cc2ncc3c(N)nc(-n4ccnc4)cc3c2cc1OC [Ib-74, 2-(1H-imidazol-1-yl)-8,9-dimethoxybenzo[c]-2,7-naphthyridin-4-amine] |  | 180 | > 20000 | 
COc1cc2c(cc1OCc1ccccc1)ncc1c(N)nc(-n3ccnc3)cc12 [Ia-34, 8-(Benzyloxy)-2-(1H-imidazol-1-yl)-9-methoxybenzo[c]-2,7-naphthyridin-4-amine] | 193 | 180 | > 20000 | 
COCCOc1cc2ncc3c(N)nc(-n4cnc(C)c4)cc3c2cc1OC [Ia-42, 9-Methoxy-8-(2-methoxyethoxy)-2-(4-methyl-1H-imidazol-1-yl)benzo[c]-2,7-naphthyridin-4-amine] | 108 | 350 | > 20000 | 
COc1cc2c(cc1OCCCN1CCOCC1)ncc1c(N)nc(-n3ccnc3)cc12 [Ia-16, 2-(1H-imidazol-1-yl)-9-methoxy-8-(3-morpholinopropoxy)benzo[c][2,7]naphthyridin-4-amine] | 170 | 380 | > 10000 | 
COc1cc2c(cc1OCC1CCN(C)CC1)ncc1c(N)nc(-c3cnccn3)cc12 [Ia-32] | 754 | 250 | > 20000 | 
COc1cc2c(cc1N1CCC(N3CCCC3)CC1)ncc1c(N)nc(-c3cccnc3)cc12 [Ia-20, 9-methoxy-2-pyridin-3-yl-8-(4-pyrrolidin-1-ylpiperidin-1-yl)benzo[c]-2,7-naphthyridin-4-amine] | 893 | 300 | > 20000 | 
CCOc1cc2ncc3c(N)nc(-c4cccnc4)cc3c2cc1OCC [Ia-46, 8,9-Diethoxy-2-pyridin-3-ylbenzo[c]-2,7-naphthyridin-4-amine] |  | 200 | > 20000 | 74
COc1cc2c(cc1N1CCC(N3CCCC3)CC1)ncc1c(N)nc(-c3cccnc3C)cc12 [Ia-19, 9-methoxy-2-(2-methylpyridin-3-yl)-8-(4-pyrrolidin-1-ylpiperidin-1-yl)benzo[c]-2,7-naphthyridin-4-amine] | > 5000 |  | > 10000 | 
COc1cc2ncc3c(N)nc(-c4cncc(Nc5c(F)c(F)c(C(N)=O)c(F)c5F)c4)cc3c2cc1OC [Ib-190, 4-{[5-(4-amino-8,9-dimethoxybenzo[c][2,7]naphthyridin-2-yl)pyridin-3-yl]amino}-2,3,5,6-tetrafluorobenzamide] | 197 |  |  | 
COc1cc2ncc3c(N)nc(-c4cncc(C#CCN(C)[C@H](C)Cc5ccccc5)c4)cc3c2cc1OC [Ib-22, 8,9-Dimethoxy-2-[5-(3-{methyl[(1R)-1-methyl-2-phenylethyl]amino}prop-1-yn-1-yl)pyridin-3-yl]benzo[c]-2,7-naphthyridin-4-amine] | > 100 |  |  | 
COc1cc2ncc3c(N)nc(-c4ccc(F)c(F)c4)cc3c2cc1OC [Ib-240, 2-(3,4-difluorophenyl)-8,9-dimethoxybenzo[c][2,7]naphthyridin-4-amine] | 998 |  |  | 
CCC(C)NC(=N)c1cncc(-c2cc3c(cnc4cc(OC)c(OC)cc43)c(N)n2)c1 (stereo not drawn) [Ib-270, 5-(4-Amino-8,9-dimethoxybenzo[c][2,7]naphthyridin-2-yl)-N-sec-butylnicotin-imidamide] | 606 |  |  | 
COCCOc1cc2ncc3c(N)nc(N(C)CC4OCCO4)cc3c2cc1OC [Ia-44, N^2-(1,3-dioxolan-2-ylmethyl)-9-methoxy-8-(2-methoxyethoxy)-N^2-methylbenzo[c]-2,7-naphthyridine-2,4-diamine] | 2680 |  |  | 
COc1cc2ncc3c(N)nc(-c4ccc(Br)c(F)c4)cc3c2cc1OC [Ib-234, 2-(4-bromo-3-fluorophenyl)-8,9-dimethoxybenzo[c][2,7]naphthyridin-4-amine] | 1000 |  |  | 

Further compounds by falling IC50 (PDK-1; [1]), results first:

IC50 (PDK-1; [1]) [nM] | IC50 (Akt1) [nM] | IC50 (PKA) [nM] | IC50 (PDK-1) [nM] | SMILES
63 |  |  |  | COc1cc2ncc3c(N)nc(-c4cncc(OC[C@@H](N)CNC5CCC5)c4)cc3c2cc1OC [Ib-100, (2S)-3-{[5-(4-amino-8,9-dimethoxybenzo[c][2,7]naphthyridin-2-yl)pyridin-3-yl]oxy}-N1-cyclobutylpropane-1,2-diamine]
50.7 |  |  |  | COc1cc2ncc3c(N)nc(-c4cncc(Nc5ccccc5N)c4)cc3c2cc1OC [Ib-182, N-[5-(4-amino-8,9-dimethoxybenzo[c][2,7]naphthyridin-2-yl)pyridin-3-yl]benzene-1,2-diamine]
32 |  |  |  | COc1cc2ncc3c(N)nc(-c4cncc(OC[C@@H](N)CNCC5(c6ccccc6)CC5)c4)cc3c2cc1OC [Ib-106, (2S)-3-{[5-(4-amino-8,9-dimethoxybenzo[c][2,7]naphthyridin-2-yl)pyridin-3-yl]oxy}-N1-[(1-phenylcyclopropyl)methyl]propane-1,2-diamine]
27 |  |  |  | COc1cc2ncc3c(N)nc(-c4cncc(CCC5(N)CCCCC5)c4)cc3c2cc1OC [Ib-258, 2-{5-[2-(1-aminocyclohexyl)ethyl]pyridin-3-yl}-8,9-dimethoxybenzo[c][2,7]naphthyridin-4-amine]
26 |  |  |  | COc1cc2ncc3c(N)nc(-c4cncc(OC[C@@H](N)CNC5CCOCC5)c4)cc3c2cc1OC [Ib-96, (2S)-3-{[5-(4-amino-8,9-dimethoxybenzo[c][2,7]naphthyridin-2-yl)pyridin-3-yl]oxy}-N1-(tetrahydro-2H-pyran-4-yl)propane-1,2-diamine]
11 |  |  |  | COc1cc2ncc3c(N)nc(-c4cncc(OC[C@@H](N)CN(C)S(=O)(=O)c5ccccc5)c4)cc3c2cc1OC [Ib-79, N-[(2S)-2-amino-3-{[5-(4-amino-8,9-dimethoxybenzo[c][2,7]naphthyridin-2-yl)pyridin-3-yl]oxy}propyl]-N-methylbenzenesulfonamide]
7 |  |  |  | CCN(Cc1ccncc1)C[C@H](N)COc1cncc(-c2cc3c(cnc4cc(OC)c(OC)cc43)c(N)n2)c1 [Ib-21, (2S)-3-{[5-(4-amino-8,9-dimethoxybenzo[c]-2,7-naphthyridin-2-yl)pyridin-3-yl]oxy}-N1-ethyl-N1-(pyridin-4-ylmethyl)propane-1,2-diamine]
7 |  |  |  | COc1cc2ncc3c(N)nc(-c4cncc(OC[C@@H](N)CNC(C)(C)c5ccccc5)c4)cc3c2cc1OC [Ib-90, (2S)-3-{[5-(4-amino-8,9-dimethoxybenzo[c][2,7]naphthyridin-2-yl)pyridin-3-yl]oxy}-N1-(1-methyl-1-phenylethyl)propane-1,2-diamine]
4 |  |  |  | COc1cc2ncc3c(N)nc(-c4cncc(OC[C@@H](N)COc5ncc(Cl)cc5Cl)c4)cc3c2cc1OC [Ib-153, 2-[5-({(2R)-2-amino-3-[(3,5-dichloropyridin-2-yl)oxy]propyl}oxy)pyridin-3-yl]-8,9-dimethoxybenzo[c][2,7]naphthyridin-4-amine]

— patent US20080293712A1, “Benzo[C][2,7]Naphtyridine Derivatives, Methods of Making Thereof and Methods of Use Thereof” (WYETH, priority 2007, published 2008)
